Test results reported in patent US20240150360A1 (THE REGENTS OF THE UNIVERSITY OF MICHIGAN, priority 2021, published 2024).
Like-named read-outs stand apart in the source and are kept apart here.

Tests used:
CBP = target: T1, CBP (Homo sapiens, UniProt Q92793); experiment: CBP degradation in 22Rv1 cells (5 h); format: cell-based; conditions: 22Rv1 cells, 5 h; for Dmax: 22Rv1, 5 h, read-out: CBP Degradation (22Rv1, 5 h) DCmax
T1 construct: endogenous in cells; host or cells: 22Rv1 (ATCC CRL-2505) human prostate cancer cells
Description: (§1) Biological Assays. […] Cells with 3-8 passages after purchase were used in experiments.

P300 = target: T2, P300 (Homo sapiens, UniProt Q09472); experiment: P300 degradation in 22Rv1 cells (5 h); format: cell-based; conditions: 22Rv1 cells, 5 h; for Dmax: read-out: P300 Degradation (22Rv1, 5 h) DCmax
T2 construct: endogenous in cells; host or cells: 22Rv1 (ATCC CRL-2505) human prostate cancer cells
Description: as §1

22Rv1 cells = experiment: Cell growth inhibition assay (CellTiter-Glo) in 22Rv1; format: cell-based, human; conditions: 22Rv1 cells, 96 h incubation, read-out: Cell Growth Inhibition (IC50) 22Rv1
Outline: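 22Rv1 prostate cancer cells (passages 3-8, DMEM with 10% FBS) were seeded at 4000 cells/well with compound, 3-fold dilutions from 10 μM final. After 96 h at 37° C and 5% CO2, growth was read by CellTiter-Glo 2.0 luminescence.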

HL60 = experiment: Cell growth inhibition in HL60; format: cell-based; conditions: read-out: Cell Growth Inhibition (IC50) HL60
[1] = Homo sapiens, HL-60, HL60 cells

T1 sequence (Q92793 whole entry): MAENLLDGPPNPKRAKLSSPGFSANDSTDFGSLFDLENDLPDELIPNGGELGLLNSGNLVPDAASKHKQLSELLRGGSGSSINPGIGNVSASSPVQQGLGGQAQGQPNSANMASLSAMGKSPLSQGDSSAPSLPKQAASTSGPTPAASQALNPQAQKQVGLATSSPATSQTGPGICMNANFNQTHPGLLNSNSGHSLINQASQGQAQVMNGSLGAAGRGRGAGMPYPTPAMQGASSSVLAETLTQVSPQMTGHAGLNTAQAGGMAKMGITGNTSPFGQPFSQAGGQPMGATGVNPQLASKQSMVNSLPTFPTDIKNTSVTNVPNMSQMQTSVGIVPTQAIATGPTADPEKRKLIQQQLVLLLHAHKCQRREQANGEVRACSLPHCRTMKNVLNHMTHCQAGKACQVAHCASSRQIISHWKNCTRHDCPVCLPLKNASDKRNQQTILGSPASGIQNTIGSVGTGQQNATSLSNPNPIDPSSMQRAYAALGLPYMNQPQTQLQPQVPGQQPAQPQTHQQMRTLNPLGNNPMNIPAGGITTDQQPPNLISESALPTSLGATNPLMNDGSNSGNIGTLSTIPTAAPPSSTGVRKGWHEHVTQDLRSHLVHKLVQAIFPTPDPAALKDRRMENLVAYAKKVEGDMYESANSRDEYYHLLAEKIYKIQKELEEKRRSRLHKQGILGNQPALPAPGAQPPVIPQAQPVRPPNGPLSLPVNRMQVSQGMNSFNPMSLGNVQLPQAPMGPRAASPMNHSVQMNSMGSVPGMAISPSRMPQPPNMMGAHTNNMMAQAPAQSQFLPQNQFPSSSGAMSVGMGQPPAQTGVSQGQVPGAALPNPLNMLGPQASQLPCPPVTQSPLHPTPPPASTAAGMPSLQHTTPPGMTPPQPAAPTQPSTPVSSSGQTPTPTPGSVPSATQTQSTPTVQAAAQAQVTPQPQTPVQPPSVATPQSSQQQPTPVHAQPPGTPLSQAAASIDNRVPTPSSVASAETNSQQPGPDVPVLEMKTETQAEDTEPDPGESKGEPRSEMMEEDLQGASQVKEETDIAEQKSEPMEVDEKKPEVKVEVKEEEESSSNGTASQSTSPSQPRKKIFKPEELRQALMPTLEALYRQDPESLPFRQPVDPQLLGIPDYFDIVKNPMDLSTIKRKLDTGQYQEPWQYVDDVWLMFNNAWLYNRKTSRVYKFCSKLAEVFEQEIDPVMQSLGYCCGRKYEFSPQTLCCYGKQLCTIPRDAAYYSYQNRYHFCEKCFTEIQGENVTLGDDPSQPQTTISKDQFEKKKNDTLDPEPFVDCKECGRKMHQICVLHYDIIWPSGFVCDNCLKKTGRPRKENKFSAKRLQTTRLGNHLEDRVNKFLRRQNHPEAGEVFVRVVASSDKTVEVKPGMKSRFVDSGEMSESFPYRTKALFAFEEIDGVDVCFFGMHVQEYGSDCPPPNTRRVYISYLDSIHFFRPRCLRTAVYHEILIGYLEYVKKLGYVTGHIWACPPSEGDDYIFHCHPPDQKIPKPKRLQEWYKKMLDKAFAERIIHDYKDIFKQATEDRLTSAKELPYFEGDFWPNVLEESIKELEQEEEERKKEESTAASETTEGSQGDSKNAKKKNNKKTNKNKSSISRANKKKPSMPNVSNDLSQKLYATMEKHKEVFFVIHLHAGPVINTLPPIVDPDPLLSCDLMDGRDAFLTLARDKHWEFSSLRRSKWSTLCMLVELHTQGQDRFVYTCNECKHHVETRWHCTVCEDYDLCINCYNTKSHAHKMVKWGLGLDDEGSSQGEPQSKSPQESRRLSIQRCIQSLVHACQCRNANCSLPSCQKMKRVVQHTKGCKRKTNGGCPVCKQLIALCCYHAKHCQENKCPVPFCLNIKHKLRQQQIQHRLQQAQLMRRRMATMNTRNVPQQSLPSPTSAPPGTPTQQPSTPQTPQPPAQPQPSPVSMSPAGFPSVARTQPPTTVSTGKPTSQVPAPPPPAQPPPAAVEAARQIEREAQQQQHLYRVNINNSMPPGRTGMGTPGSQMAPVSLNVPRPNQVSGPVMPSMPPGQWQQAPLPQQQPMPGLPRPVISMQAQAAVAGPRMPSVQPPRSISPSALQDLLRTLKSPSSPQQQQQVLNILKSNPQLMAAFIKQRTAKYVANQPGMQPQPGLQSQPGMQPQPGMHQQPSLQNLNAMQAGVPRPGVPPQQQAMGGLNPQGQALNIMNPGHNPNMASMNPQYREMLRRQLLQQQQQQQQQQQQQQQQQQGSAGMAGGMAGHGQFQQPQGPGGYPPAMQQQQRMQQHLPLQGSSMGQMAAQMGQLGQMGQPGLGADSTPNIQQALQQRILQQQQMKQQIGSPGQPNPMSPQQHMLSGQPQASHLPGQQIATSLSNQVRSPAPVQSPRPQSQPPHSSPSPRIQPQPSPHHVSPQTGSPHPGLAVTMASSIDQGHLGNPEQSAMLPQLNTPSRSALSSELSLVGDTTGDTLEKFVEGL
T2 sequence (Q09472 whole entry): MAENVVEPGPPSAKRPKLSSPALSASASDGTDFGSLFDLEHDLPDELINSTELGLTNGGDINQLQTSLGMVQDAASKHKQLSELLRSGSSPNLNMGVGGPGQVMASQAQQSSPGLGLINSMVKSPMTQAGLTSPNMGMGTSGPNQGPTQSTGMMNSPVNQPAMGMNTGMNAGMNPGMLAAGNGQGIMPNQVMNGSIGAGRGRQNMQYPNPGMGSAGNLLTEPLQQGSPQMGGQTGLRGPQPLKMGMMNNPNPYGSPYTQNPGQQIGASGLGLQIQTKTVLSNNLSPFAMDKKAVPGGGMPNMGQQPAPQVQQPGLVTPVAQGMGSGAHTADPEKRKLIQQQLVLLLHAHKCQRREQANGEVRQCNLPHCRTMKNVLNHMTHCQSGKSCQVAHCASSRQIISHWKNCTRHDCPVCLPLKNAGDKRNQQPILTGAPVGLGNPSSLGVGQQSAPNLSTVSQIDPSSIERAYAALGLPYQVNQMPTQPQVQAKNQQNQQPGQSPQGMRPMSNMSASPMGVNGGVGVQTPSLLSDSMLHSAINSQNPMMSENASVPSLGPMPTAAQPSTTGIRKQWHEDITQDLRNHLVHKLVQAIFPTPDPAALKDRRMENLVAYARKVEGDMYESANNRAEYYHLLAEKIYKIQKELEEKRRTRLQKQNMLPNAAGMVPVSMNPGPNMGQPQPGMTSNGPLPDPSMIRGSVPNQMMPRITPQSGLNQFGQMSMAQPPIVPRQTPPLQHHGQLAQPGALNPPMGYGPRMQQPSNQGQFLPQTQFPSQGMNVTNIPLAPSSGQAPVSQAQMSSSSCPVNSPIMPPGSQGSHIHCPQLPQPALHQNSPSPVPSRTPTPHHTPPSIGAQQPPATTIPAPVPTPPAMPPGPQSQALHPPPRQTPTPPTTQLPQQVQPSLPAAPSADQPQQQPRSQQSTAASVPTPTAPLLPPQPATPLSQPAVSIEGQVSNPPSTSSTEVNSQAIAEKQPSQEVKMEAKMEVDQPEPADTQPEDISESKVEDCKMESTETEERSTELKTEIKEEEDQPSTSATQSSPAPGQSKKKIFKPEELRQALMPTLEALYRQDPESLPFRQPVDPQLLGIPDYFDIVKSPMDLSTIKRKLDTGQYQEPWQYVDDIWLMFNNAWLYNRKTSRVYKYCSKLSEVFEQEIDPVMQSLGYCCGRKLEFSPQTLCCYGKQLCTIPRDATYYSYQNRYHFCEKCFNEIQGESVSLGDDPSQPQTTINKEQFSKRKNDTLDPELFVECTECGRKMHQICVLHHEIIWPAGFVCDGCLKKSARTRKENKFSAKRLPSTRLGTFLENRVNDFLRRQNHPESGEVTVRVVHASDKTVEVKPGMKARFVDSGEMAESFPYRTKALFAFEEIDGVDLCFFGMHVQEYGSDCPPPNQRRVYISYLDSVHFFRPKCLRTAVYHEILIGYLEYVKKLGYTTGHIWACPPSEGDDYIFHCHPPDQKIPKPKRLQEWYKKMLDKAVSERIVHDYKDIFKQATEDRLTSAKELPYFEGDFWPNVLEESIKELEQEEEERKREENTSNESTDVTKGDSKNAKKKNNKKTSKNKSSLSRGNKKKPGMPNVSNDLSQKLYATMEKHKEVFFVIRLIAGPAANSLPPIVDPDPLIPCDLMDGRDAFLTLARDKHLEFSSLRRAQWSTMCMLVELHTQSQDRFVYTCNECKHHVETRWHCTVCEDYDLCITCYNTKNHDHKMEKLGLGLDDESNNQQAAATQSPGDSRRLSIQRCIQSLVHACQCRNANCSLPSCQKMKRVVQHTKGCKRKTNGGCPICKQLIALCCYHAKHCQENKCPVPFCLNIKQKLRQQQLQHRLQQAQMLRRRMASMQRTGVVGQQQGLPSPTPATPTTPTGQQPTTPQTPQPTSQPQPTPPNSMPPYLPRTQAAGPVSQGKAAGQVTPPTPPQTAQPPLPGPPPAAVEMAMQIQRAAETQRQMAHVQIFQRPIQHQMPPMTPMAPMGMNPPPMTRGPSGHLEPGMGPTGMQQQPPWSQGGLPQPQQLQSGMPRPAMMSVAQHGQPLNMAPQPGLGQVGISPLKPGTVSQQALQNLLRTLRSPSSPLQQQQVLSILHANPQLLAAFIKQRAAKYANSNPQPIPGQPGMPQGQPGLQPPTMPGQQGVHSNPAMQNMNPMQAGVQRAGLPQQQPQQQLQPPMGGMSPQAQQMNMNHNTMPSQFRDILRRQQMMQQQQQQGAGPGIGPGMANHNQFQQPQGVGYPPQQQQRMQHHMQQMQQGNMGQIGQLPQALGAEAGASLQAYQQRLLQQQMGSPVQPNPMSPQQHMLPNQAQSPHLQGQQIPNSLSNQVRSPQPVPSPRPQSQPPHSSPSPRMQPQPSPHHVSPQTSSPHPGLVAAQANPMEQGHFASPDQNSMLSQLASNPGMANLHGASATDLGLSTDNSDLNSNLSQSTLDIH

Row | SMILES | Dmax (CBP) | DC50 (CBP) | DC50 (P300) | Dmax (P300) | IC50 (22Rv1 cells; Homo sapiens, 22Rv1, 96 h) | IC50 (HL60; [1]) | CBP Degradation (22Rv1, 5 h) DCmax (CBP) | IC50 (22Rv1 cells) | IC50 (HL60; HL60 cells)
1 | CC(=O)c1cc2c(cc1C(F)F)N(c1nn(C3CCN(C(=O)CN4CCc5cc6c(cc5C4)C(=O)N(C4CCC(=O)NC4=O)C6=O)CC3)c3c1CN(C(C)=O)CC3)CCC2 (centres unmarked) [CP-020, 6-(2-(4-(5-acetyl-3-(6-acetyl-7-(difluoromethyl)-3,4-dihydroquinolin-1(2H)-yl)-4,5,6,7-tetrahydro-1H-pyrazolo[4,3-c]pyridin-1-yl)piperidin-1-yl)-2-oxoethyl)-2-(2,6-dioxopiperidin-3-yl)-5,6,7,8-tetrahydro-1H-pyrrolo[3,4-g]isoquinoline-1,3(2H)-dione] | < 50% | > 1000 nM | > 1000 nM | < 50% | > 10000 nM | < 1000 nM | – | – | –
2 | Cn1cc(-c2cc3c(cc2C(F)F)N(c2nn(C4CCN(C(=O)CN5Cc6cc7c(cc6C5)C(=O)N(C5CCC(=O)NC5=O)C7=O)CC4)c4c2CN(C(=O)C2CC2)CC4)CCC3)cn1 (centres unmarked) [CP-054, 6-(2-(4-(5-(cyclopropanecarbonyl)-3-(7-(difluoromethyl)-6-(1-methyl-1H-pyrazol-4-yl)-3,4-dihydroquinolin-1(2H)-yl)-4,5,6,7-tetrahydro-1H-pyrazolo[4,3-c]pyridin-1-yl)piperidin-1-yl)-2-oxoethyl)-2-(2,6-dioxopiperidin-3-yl)-6,7-dihydropyrrolo[3,4-f]isoindole-1,3(2H,5H)-dione] | < 50% | > 1000 nM | > 1000 nM | < 50% | < 10000 nM | < 10000 nM | – | – | –
3 | Cc1noc(C)c1-c1ccc2c(c1)nc([C@@H]1CCCC(=O)N1c1ccc(F)c(F)c1)n2C1CCN(C(=O)CN2Cc3cc4c(cc3C2)C(=O)N(C2CCC(=O)NC2=O)C4)CC1 (stereo partly drawn) [CP-062, 3-(6-(2-(4-(2-((S)-1-(3,4-difluorophenyl)-6-oxopiperidin-2-yl)-5-(3,5-dimethylisoxazol-4-yl)-1H-benzo[d]imidazol-1-yl)piperidin-1-yl)-2-oxoethyl)-1-oxo-3,5,6,7-tetrahydropyrrolo[3,4-f]isoindol-2(1H)-yl)piperidine-2,6-dione] | < 50% | < 1000 nM | < 100 nM | > 50% | > 10000 nM | > 10000 nM | – | – | –
4 | CC(=O)N1CCc2c(c(N3CCCc4cc(-c5cnn(C)c5)c(C(F)F)cc43)nn2C2CCC(N3CCc4cc5c(cc4C3)C(=O)N(C3CCC(=O)NC3=O)C5=O)CC2)C1 (centres unmarked) [CP-038, 6-(4-(5-acetyl-3-(7-(difluoromethyl)-6-(1-methyl-1H-pyrazol-4-yl)-3,4-dihydroquinolin-1(2H)-yl)-4,5,6,7-tetrahydro-1H-pyrazolo[4,3-c]pyridin-1-yl)cyclohexyl)-2-(2,6-dioxopiperidin-3-yl)-5,6,7,8-tetrahydro-1H-pyrrolo[3,4-g]isoquinoline-1,3(2H)-dione] | > 90% | < 10 nM | < 10 nM | > 90% | < 100 nM | < 100 nM | – | – | –
5 | CC(=O)N1CCc2c(c(N3CCCc4cc(-c5cnn(C)c5)c(C(F)F)cc43)nn2[C@H]2CC[C@H](CN3Cc4cc5c(cc4C3)C(=O)N(C3CCC(=O)NC3=O)C5)CC2)C1 (some centres unmarked) [CP-048, 3-(6-(((1r,4r)-4-(5-acetyl-3-(7-(difluoromethyl)-6-(1-methyl-1H-pyrazol-4-yl)-3,4-dihydroquinolin-1(2H)-yl)-4,5,6,7-tetrahydro-1H-pyrazolo[4,3-c]pyridin-1-yl)cyclohexyl)methyl)-1-oxo-3,5,6,7-tetrahydropyrrolo[3,4-f]isoindol-2(1H)-yl)piperidine-2,6-dione] | > 90% | < 10 nM | < 10 nM | > 90% | < 100 nM | < 100 nM | – | – | –
6 | CC(=O)N1CCc2c(c(N3CCCc4cc(Br)c(C(F)F)cc43)nn2C2CCN(C(=O)CN3Cc4cc5c(cc4C3)C(=O)N(C3CCC(=O)NC3=O)C5=O)CC2)C1 (centres unmarked) [CP-016, 6-(2-(4-(5-acetyl-3-(6-bromo-7-(difluoromethyl)-3,4-dihydroquinolin-1(2H)-yl)-4,5,6,7-tetrahydro-1H-pyrazolo[4,3-c]pyridin-1-yl)piperidin-1-yl)-2-oxoethyl)-2-(2,6-dioxopiperidin-3-yl)-6,7-dihydropyrrolo[3,4-f]isoindole-1,3(2H,5H)-dione] | < 50% | > 1000 nM | > 1000 nM | < 50% | < 1000 nM | < 100 nM | – | – | –
7 | CC(=O)N1CCc2c(c(N3CCCc4cc(CCC5CC5)c(C(F)F)cc43)nn2C2CCN(C(=O)CN3Cc4cc5c(cc4C3)C(=O)N(C3CCC(=O)NC3=O)C5=O)CC2)C1 (centres unmarked) [CP-025, 6-(2-(4-(5-acetyl-3-(6-(2-cyclopropylethyl)-7-(difluoromethyl)-3,4-dihydroquinolin-1(2H)-yl)-4,5,6,7-tetrahydro-1H-pyrazolo[4,3-c]pyridin-1-yl)piperidin-1-yl)-2-oxoethyl)-2-(2,6-dioxopiperidin-3-yl)-6,7-dihydropyrrolo[3,4-f]isoindole-1,3(2H,5H)-dione] | < 50% | < 10 nM | < 10 nM | > 70% | < 1000 nM | < 100 nM | – | – | –
8 | CC(=O)N1CCc2c(c(N3CCCc4cc(C)c(C(F)F)cc43)nn2C2CCN(C(=O)CN3Cc4cc5c(cc4C3)C(=O)N(C3CCC(=O)NC3=O)C5=O)CC2)C1 (centres unmarked) [CP-011, 6-(2-(4-(5-acetyl-3-(7-(difluoromethyl)-6-methyl-3,4-dihydroquinolin-1(2H)-yl)-4,5,6,7-tetrahydro-1H-pyrazolo[4,3-c]pyridin-1-yl)piperidin-1-yl)-2-oxoethyl)-2-(2,6-dioxopiperidin-3-yl)-6,7-dihydropyrrolo[3,4-f]isoindole-1,3(2H,5H)-dione] | > 90% | < 10 nM | < 10 nM | > 70% | < 1000 nM | < 1000 nM | – | – | –
9 | CC(=O)N1CCc2c(c(N3CCCc4cc(-c5cnn(C)c5)c(C(F)F)cc43)nn2C2CCN(C(=O)CCN3CCc4cc5c(cc4C3)C(=O)N(C3CCC(=O)NC3=O)C5=O)CC2)C1 (centres unmarked) [CP-003, 6-(3-(4-(5-acetyl-3-(7-(difluoromethyl)-6-(1-methyl-1H-pyrazol-4-yl)-3,4-dihydroquinolin-1(2H)-yl)-4,5,6,7-tetrahydro-1H-pyrazolo[4,3-c]pyridin-1-yl)piperidin-1-yl)-3-oxopropyl)-2-(2,6-dioxopiperidin-3-yl)-5,6,7,8-tetrahydro-1H-pyrrolo[3,4-g]isoquinoline-1,3(2H)-dione] | > 50% | < 100 nM | – | – | < 10000 nM | < 1000 nM | – | – | –
10 | CC(=O)N1CCc2c(c(N3CCCc4cc(-c5cnn(C)c5)c(C(F)F)cc43)nn2C2CCC(C(=O)N3CCc4cc5c(cc4C3)C(=O)N(C3CCC(=O)NC3=O)C5=O)CC2)C1 (centres unmarked) [CP-036, 6-(4-(5-acetyl-3-(7-(difluoromethyl)-6-(1-methyl-1H-pyrazol-4-yl)-3,4-dihydroquinolin-1(2H)-yl)-4,5,6,7-tetrahydro-1H-pyrazolo[4,3-c]pyridin-1-yl)cyclohexane-1-carbonyl)-2-(2,6-dioxopiperidin-3-yl)-5,6,7,8-tetrahydro-1H-pyrrolo[3,4-g]isoquinoline-1,3(2H)-dione] | – | < 10 nM | – | – | – | – | +++ (>90% = +++) | < 1000 nM | < 100 nM
11 | CC(=O)N1CCc2c(c(N3CCCc4cc(-c5cnn(C)c5)c(C(F)F)cc43)nn2C2CCC(CC(=O)N3CCc4cc5c(cc4C3)C(=O)N(C3CCC(=O)NC3=O)C5=O)CC2)C1 (centres unmarked) [CP-028, 6-(2-(4-(5-acetyl-3-(7-(difluoromethyl)-6-(1-methyl-1H-pyrazol-4-yl)-3,4-dihydroquinolin-1(2H)-yl)-4,5,6,7-tetrahydro-1H-pyrazolo[4,3-c]pyridin-1-yl)cyclohexyl)acetyl)-2-(2,6-dioxopiperidin-3-yl)-5,6,7,8-tetrahydro-1H-pyrrolo[3,4-g]isoquinoline-1,3(2H)-dione] | > 50% | < 10 nM | – | – | < 1000 nM | < 100 nM | – | – | –
12 | CC(=O)N1CCc2c(c(N3CCCc4cc(-c5cnn(CCCCCN6CCc7cc8c(cc7C6)C(=O)N(C6CCC(=O)NC6=O)C8=O)c5)c(C(F)F)cc43)nn2C2CCOCC2)C1 (centres unmarked) [CP-069, 6-(5-(4-(1-(5-acetyl-1-(tetrahydro-2H-pyran-4-yl)-4,5,6,7-tetrahydro-1H-pyrazolo[4,3-c]pyridin-3-yl)-7-(difluoromethyl)-1,2,3,4-tetrahydroquinolin-6-yl)-1H-pyrazol-1-yl)pentyl)-2-(2,6-dioxopiperidin-3-yl)-5,6,7,8-tetrahydro-1H-pyrrolo[3,4-g]isoquinoline-1,3(2H)-dione] | > 70% | < 10 nM | – | – | < 1000 nM | < 100 nM | – | – | –
13 | CC(=O)N1CCc2c(c(N3CCCc4cc(-c5cnn(CCCN6Cc7cc8c(cc7C6)C(=O)N(C6CCC(=O)NC6=O)C8=O)c5)c(C(F)F)cc43)nn2C2CCOCC2)C1 (centres unmarked) [CP-073, 6-(3-(4-(1-(5-acetyl-1-(tetrahydro-2H-pyran-4-yl)-4,5,6,7-tetrahydro-1H-pyrazolo[4,3-c]pyridin-3-yl)-7-(difluoromethyl)-1,2,3,4-tetrahydroquinolin-6-yl)-1H-pyrazol-1-yl)propyl)-2-(2,6-dioxopiepridin-3-yl)-6,7-dihydropyrrolo[3,4-f]isoindole-1,3(2H,5H)-dione] | > 70% | < 10 nM | – | – | < 10000 nM | < 100 nM | – | – | –
